Measured values from patent US20050014689A1, “Remedies for life style-related diseases or cibophobia and method of screening the same” (priority 2001, published 2005).

System: clone 901 mRNA
Test: Effect of intracerebroventricular antisense DNA administration on food consumption of normal and obese mice
Assay type: in vivo
Conditions: 30 μg/mouse into lateral ventricle
Excerpt: reagent: clone 901 antisense DNA was a mixture of two kinds of 25mer antisense DNAs relative to the vicinity of the gene initiation codon and synthesis, thiolation and HPLC purification were committed to Nihon Bio Service Co., Ltd.
Test animal: male C57BL/6N (hereinafter normal mouse) and C57BL db/db (hereinafter obese mouse) (SPF grade) were purchased from Charles River, Japan, Inc. and CLEA JAPAN, INC., respectively, and after preliminary breeding, normal mice were used for the test at the age of 9 weeks and the obese mice were used for the test at the age of 11 weeks.
Breeding environment: The mice were bred in a room controlled to a temperature of not lower than 20° C. and not higher than 26° C., relative humidity of not less than 30% and not more than 70%, lighting cycle of 8:00-20:00 lighting and 20:00-8:00 lights-out. During breeding, the mice were allowed a free access to a solid feed (CE-2, CLEA JAPAN) and sterile distilled water.
As an antisense DNA administration liquid, an artificial cerebrospinal fluid (0.166 g/L CaCl2, 7.014 g/L NaCl, 0.298 g/L KCl, 0.203 g/L MgCl2.6H2O, 2.10 g/L NaHCO3) containing 7.5 μg/μl of antisense DNA was prepared. In addition, an artificial cerebrospinal fluid free of antisense DNA was used as a solvent control liquid.
The normal mice and obese mice were divided into two groups each, and after fasting overnight, an antisense DNA was administered at 4 μl/mouse (30 μg/mouse in the amount of antisense DNA) to one group and a solvent control liquid (4 μl/mouse) was administered into the lateral ventricle of the other group, simultaneously with the lighting at 8:00 a.m.
Feeding of mice was resumed immediately after administration, and food consumption was calculated at 12 hours after administration. […] The food consumption from 12 hr to 24 hr after administration was calculated. […] In the normal mice, no effect of antisense DNA of clone 901 was found.

antisense DNA of clone 901: mixture of two thiolated 25mer antisense DNAs (SEQ ID No 3 and No 4) to the vicinity of the clone 901 initiation codon (antisense 1 GCTTCGCAGCGCTCGCTGGGCGGCG; antisense 2 AGTGGGCCACAGCTCCACATGGCAG; DNA, all phosphorothioate, methylation of C not given here)
effect on food consumption (normal mice (C57BL/6N), 12 hr to 24 hr after administration): no effect
effect on food consumption (normal mice (C57BL/6N), immediately after administration to 12 hours): food consumption-decreasing effect
effect on food consumption (obese mice (C57BL db/db), 12 hr to 24 hr after administration): suppressed to the same level with the normal mice
effect on food consumption (obese mice (C57BL db/db), immediately after administration to 12 hours): food consumption-decreasing effect
